According to US9789181B2, “PAN-DR binding polypeptides and uses thereof” (Epimmune Inc., priority 2009, dated 2017):
Where no end group is shown, it is not given here.

Key:
purified HLA DRB1 *0404 = purified HLA DRB1 *0404 (Homo sapiens, UniProt P01903+P01911, A100R/A169T/F76Y/I96L/K127E/L162R/M171V/N62H/P40V/Q125Y/R42H/S133A/S149N/S66Y/V209L/W38E); assay: IC50nM to purified HLA | DRB1 *0404
Description: (§1) Table printed on a drawing sheet, FIG. 1
Head of the field: IC50nM to purified HLA | DRB1 *0404
(§2) First copying reader's note: The comma is the decimal sign and the point a thousands separator (e.g. 21.831); some values are printed bold or italic and some SEQ ID NOs underlined, with no legend on the sheet.
Where the first naming reader finds the target: head: IC50nM to purified HLA | DRB1 *0404

purified HLA DRB1 *0301 = purified HLA DRB1 *0301 (Homo sapiens, UniProt P01903+P01911, A100K/A102G/A103R/A169T/F55Y/I96L/K41T/L162R/M171V/P40S/Q125H/Q178H/Q39Y/R42S/S66N/T106N/T262R/W38E/Y61H); assay: IC50nM to purified HLA | DRB1 *0301
Description: as §1
Head of the field: IC50nM to purified HLA | DRB1 *0301
as §2
Where the first naming reader finds the target: head: IC50nM to purified HLA | DRB1 *0301

purified HLA DRB1 *0802 = purified HLA DRB1 *0802 (Homo sapiens, UniProt P01903+P01911, A100R/A103L/A169T/F76Y/H45Y/I96F/K41T/L162R/M171V/P40S/Q125H/Q178H/Q39Y/Q99D/R218S/R42G/S66Y/V115G/W38E); assay: IC50nM to purified HLA | DRB1 *0802
Description: as §1
Head of the field: IC50nM to purified HLA | DRB1 *0802
as §2
Where the first naming reader finds the target: head: IC50nM to purified HLA | DRB1 *0802

purified HLA DRB1 *1101 = purified HLA DRB1 *1101 (Homo sapiens, UniProt P01903+P01911, A100R/A169T/A87E/I96F/K41T/L162R/M171V/P40S/Q125H/Q178H/Q39Y/Q99D/R42S/S66Y/T262R/V115G/W38E); assay: IC50nM to purified HLA | DRB1 *1101
Description: as §1
Head of the field: IC50nM to purified HLA | DRB1 *1101
as §2
Where the first naming reader finds the target: head: IC50nM to purified HLA | DRB1 *1101

purified HLA DRB1 *1501 = purified HLA DRB1 *1501 (Homo sapiens, UniProt P01903+P01911); assay: IC50nM to purified HLA | DRB1 *1501
Description: as §1
Head of the field: IC50nM to purified HLA | DRB1 *1501
as §2
Where the first naming reader finds the target: head: IC50nM to purified HLA | DRB1 *1501

purified HLA DRB1 *0101 = purified HLA DRB1 *0101 (Homo sapiens, UniProt P01903+P01911, A100R/D57E/F55L/F60I/F76Y/I96L/L162R/M171V/P40L/Q125E/R42F/V115G/Y59C); assay: IC50nM to purified HLA | DRB1 *0101
Description: as §1
Head of the field: IC50nM to purified HLA | DRB1 *0101
as §2
Where the first naming reader finds the target: head: IC50nM to purified HLA | DRB1 *0101

purified HLA DRB4 *0101 = purified HLA DRB4 *0101 (Homo sapiens, UniProt P01903+P13762, G164S); assay: IC50nM to purified HLA | DRB4 *0101
Description: as §1
Head of the field: IC50nM to purified HLA | DRB4 *0101
as §2
Where the first naming reader finds the target: head: IC50nM to purified HLA | DRB4 *0101

purified HLA DRB5 *0101 = purified HLA DRB5 *0101 (Homo sapiens, UniProt P01903+Q30154); assay: IC50nM to purified HLA | DRB5 *0101
Description: as §1
Head of the field: IC50nM to purified HLA | DRB5 *0101
as §2
Where the first naming reader finds the target: head: IC50nM to purified HLA | DRB5 *0101

purified HLA DRB1 *0405 = purified HLA DRB1 *0405 (Homo sapiens, UniProt P01903+P01911, A100R/A169T/D86S/F76Y/I96L/K127E/L162R/M171V/N62H/P40V/Q125Y/R42H/S133A/S149N/S66Y/V115G/V209L/W38E); assay: IC50nM to purified HLA | DRB1 *0405
Description: as §1
Head of the field: IC50nM to purified HLA | DRB1 *0405
as §2
Where the first naming reader finds the target: head: IC50nM to purified HLA | DRB1 *0405

purified HLA DRB1 *1302 = purified HLA DRB1 *1302 (Homo sapiens, UniProt P01903+P01911, A100E/A169T/K41T/L162R/M171V/P40S/Q125H/Q178H/Q39Y/Q99D/R42S/S66N/T262R/V115G/W38E/Y61H); assay: IC50nM to purified HLA | DRB1 *1302
Description: as §1
Head of the field: IC50nM to purified HLA | DRB1 *1302
as §2
Where the first naming reader finds the target: head: IC50nM to purified HLA | DRB1 *1302

purified HLA DRB1 *0701 = purified HLA DRB1 *0701 (Homo sapiens, UniProt P01903+P01911, A100R/A102G/A103Q/D57E/D86V/E43K/F76Y/K127E/L162R/M171V/P40G/Q125H/Q99D/R33Q/R42Y/R54Q/S133A/S66F/T210M/V115G/Y107V/Y59L/Y89S); assay: IC50nM to purified HLA | DRB1 *0701
Description: as §1
Head of the field: IC50nM to purified HLA | DRB1 *0701
as §2
Where the first naming reader finds the target: head: IC50nM to purified HLA | DRB1 *0701

purified HLA DRB1 *0901 = purified HLA DRB1 *0901 (Homo sapiens, UniProt P01903+P01911, A100R/A103E/D57H/D86V/F55Y/F60I/F76Y/I96F/K127E/L162R/M171V/P40D/Q125H/Q99R/R33Q/R42F/S133A/S66N/T210M/V115G/W38K/Y107V/Y59G/Y89S); assay: IC50nM to purified HLA | DRB1 *0901
Description: as §1
Head of the field: IC50nM to purified HLA | DRB1 *0901
as §2
Where the first naming reader finds the target: head: IC50nM to purified HLA | DRB1 *0901

purified HLA DRB1 *0401 = purified HLA DRB1 *0401 (Homo sapiens, UniProt P01903+P01911, A100K/A169T/F76Y/I96L/K127E/L162R/M171V/N62H/P40V/Q125Y/R42H/S133A/S149N/S66Y/V115G/V209L/W38E); assay: IC50nM to purified HLA | DRB1 *0401
Description: as §1
Head of the field: IC50nM to purified HLA | DRB1 *0401
as §2
Where the first naming reader finds the target: head: IC50nM to purified HLA | DRB1 *0401

Chain of purified HLA DRB1 *1302 (P01903 26-254 limits assumed, other chains not shown): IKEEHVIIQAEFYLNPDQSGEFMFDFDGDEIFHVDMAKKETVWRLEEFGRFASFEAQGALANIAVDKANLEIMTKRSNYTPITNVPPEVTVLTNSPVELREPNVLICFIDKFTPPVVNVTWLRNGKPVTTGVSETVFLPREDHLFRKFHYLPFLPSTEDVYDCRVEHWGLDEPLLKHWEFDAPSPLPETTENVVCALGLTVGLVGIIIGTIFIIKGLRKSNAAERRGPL
Chain of purified HLA DRB1 *1101 (P01903 26-254 limits assumed, other chains not shown): as above
Chain of purified HLA DRB4 *0101 (P01903 26-254 limits assumed): as the sequence (P01903 26-254 limits assumed, other chains not shown) above
Chain of purified HLA DRB4 *0101 (P13762 whole entry G164S): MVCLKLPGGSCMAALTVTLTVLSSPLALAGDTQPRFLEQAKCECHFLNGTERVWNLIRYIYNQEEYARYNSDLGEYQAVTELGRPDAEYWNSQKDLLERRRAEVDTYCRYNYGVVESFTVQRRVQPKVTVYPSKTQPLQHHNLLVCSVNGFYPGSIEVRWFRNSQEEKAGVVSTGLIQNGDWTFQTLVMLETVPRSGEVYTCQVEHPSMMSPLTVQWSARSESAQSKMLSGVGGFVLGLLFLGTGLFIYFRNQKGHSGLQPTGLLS
Chain of purified HLA DRB1 *0301 (P01903 26-254 limits assumed, other chains not shown): as the sequence (P01903 26-254 limits assumed, other chains not shown) above

Sequence	IC50 (purified HLA DRB1 *0404)	IC50 (purified HLA DRB1 *0301)	IC50 (purified HLA DRB1 *0802)	IC50 (purified HLA DRB1 *1101)	IC50 (purified HLA DRB1 *1501)	IC50 (purified HLA DRB1 *0101)	IC50 (purified HLA DRB4 *0101)	IC50 (purified HLA DRB5 *0101)	IC50 (purified HLA DRB1 *0405)	IC50 (purified HLA DRB1 *1302)	IC50 (purified HLA DRB1 *0701)	IC50 (purified HLA DRB1 *0901)	IC50 (purified HLA DRB1 *0401)
AAAKFVAAWTLKAAA [SEQ ID NO: 4]	2.9 nM	209 nM	5.2 nM	11 nM	9.8 nM	3.3 nM	207 nM	5.4 nM	25 nM	648 nM	49 nM		
AAAFFVAAFTLHAAA [SEQ ID NO: 14]	1.1 nM	371 nM			25 nM		129 nM	29 nM		219000 nM	610 nM	48 nM	2 nM
AAAHFVAAWTLKAAA [SEQ ID NO: 25]	4.8 nM	262 nM			20 nM	4.7 nM	384 nM	11 nM		1530 nM	110 nM	45 nM	3.1 nM
AAAFFVAANTLKADA [SEQ ID NO: 19]	4.5 nM	140 nM		46 nM	103 nM	3.4 nM	5520 nM	4.4 nM	9.5 nM	187 nM			4 nM
AAAFFVAANTLHAAA [SEQ ID NO: 15]	4.1 nM			42 nM	70 nM	6.5 nM	876 nM		27 nM	64 nM		31 nM	3.8 nM
AAAFFVAAYTLKADA [SEQ ID NO: 17]	6 nM		6.7 nM	55 nM	25 nM	3.8 nM		7.3 nM	33 nM	856 nM	45 nM		5 nM
AAAKFVAAWTLHAAA [SEQ ID NO: 6]	2.4 nM		7.6 nM			3.9 nM	209 nM	22 nM		656 nM	35 nM	24 nM	3.4 nM
AAAWFVAAWTLHAAA [SEQ ID NO: 7]	2 nM	111 nM		32 nM	36 nM	4.3 nM	447 nM			4240 nM	84 nM	33 nM	
AAAYFVAAWTLKAAA [SEQ ID NO: 20]	1.4 nM		6.1 nM	11 nM		2.7 nM	291 nM	5.9 nM	6.6 nM	917 nM			1.6 nM
AAAWFVAAYTLHAAA [SEQ ID NO: 8]	3.2 nM	160 nM			6.2 nM	3.9 nM	460 nM	25 nM	24 nM	3110 nM	91 nM	19 nM	3.8 nM
AAAYFVAAYTLHAAA [SEQ ID NO: 22]	1.9 nM	77 nM	5.2 nM		4 nM		445 nM		7.3 nM	830 nM	65 nM	11 nM	2.3 nM
AAAWFVAAWTLKAAA [SEQ ID NO: 5]	3.8 nM	161 nM	8.5 nM		31 nM		566 nM	9.3 nM		2930 nM		35 nM	3.1 nM
AAAWFVAANTLHAAA [SEQ ID NO: 10]		174 nM	8.6 nM		101 nM	3.8 nM	606 nM	22 nM		38 nM	43 nM	33 nM	2.9 nM
